Consider eight molecules from US5525598A, “Gallium (III) complexes in pharmaceutical compositions” (Collery; Phillippe, priority 1991, dated 1996).

Where two headings read alike, the source gives them in different places.

Data set [1] deals with human immunodeficiency virus (HIV-1). The data set is described as follows: Anti-HIV-1 activity, protection of T4 lymphocytes from killing by virus (NCI XTT assay). It counts as cell-based. The text has this:
(§1) The gallium (III) complexes were screened for anti-HIV-1 activity at the National Cancer Institute, Bethesda, Md., as part of their in vitro Anti-AIDS Drug Discovery Program. The assay is based on the killing (cytopathic effect) of T4 lymphocytes by human immunodeficiency virus (HIV-1) and is designed to evaluate the drug effects at any stage of the virus reproductive cycle. […] All tests are compared with a positive control done at the same time and under identical conditions employing 3'-Azido-3'-deoxythymidine (AZT).
(§2) The general procedure is reprinted below from NCI infomation sheets:
(§3) 1. Candidate agent is dissolved in dimethylsulfoxide, then diluted 1:2000 in cell culture medium. […] dilutions (half-log10) are prepared before adding to 96-well microtiter plated.
(§4) 2. T4 lymphocytes (CEN cell line) are exposed to HIV at a virus-to-cell ratio of approximately 0.05 and are plated along with noninfected control cells into drug-containing wells or wells with medium alone.
(§5) 3. Cultures are incubated at 37° C. in a 5% carbon dioxide atmosphere for 6 days.
(§6) 4. The tetrazolium salt, XTT, is added to all wells, and cultures are incubated to allow formazon colour development by viable cells.
(§7) 5. Individual wells are analysed spectrophotometrically to quantitate formazon production and, in addition, are viewed microscopically for detection of viable cells and confirmation of protective activity.
(§8) 6. Drug-treated virus-infected cells are compared with drug-treated noninfected cells and with other appropriate controls (untreated infected and untreated noninfected cells, drug-containing wells without cells, etc.) on the same plate.
(§9) 7. Data reviewed in comparison with other tests done at the same time, and a determination about activity is made.

The subject of data set [2] is T4 lymphocytes. The data set is described as follows: Drug effect on noninfected T4 lymphocytes (NCI XTT assay), IC50. It counts as cell-based.
Description: as §1, §2, §3, §4, §5, §6, §7, §8, §9
A general note: Formazan colour is commonly taken as a measure of viable cells.

For data set [3] the following is noted: per os, aqueous formulation, therapeutical dosages; EP-B1-0059148; cited from earlier work.
Data set [4] relates to human immunodeficiency virus (HIV-1). The note with it: cited from earlier work; for EC50: read-out: EC50 (anti-HIV activity).
Data set [5] relates to T4 lymphocytes. The conditions noted are these: cited from earlier work.
Data set [6] has as its system experimental animal tumors. The note with it: Adamson et al. 1975; cited from earlier work.
A further data set relates to refractory lymphomas. The note with it: phase II trials, patients with refractory lymphomas; Foster et al. 1986; cited from earlier work.
Data set [7] has as its system reverse transcriptase of Rauscher murine leukemia virus. The note with it: in vitro; Waalkes et al. 1974; cited from earlier work.
The test system of a further data set is P-388 leukaemia. The data set is described as follows: Antitumor activity, P-388 leukaemia, survival T/C. It counts as in vivo. The note with it: P 388 system.
The test system of the next data set is sarcoma 180. The note with it: sarcoma 180 system. The protocol: The gallium complexes were administered to animals bearing the P-388 leukaemia or the sarcoma 180 system and the average survival time (T) of the treated animals was compared with the average survival of control animals C. A high value T/C is characteristic of an antitumoral activity. [formula]

[8] abbreviates: CEM-SS, values from O. S. Weislow et al.
The mark [9] stands for this setting: CEM, values from R. Vince et al.

As a reminder, the EC50 is the concentration giving half of the maximal effect. A word on the IC50: it is the concentration that inhibits the measured activity by half. Consider `Cc1ccn[nH]1.Cc1ccn[nH]1.Cc1ccn[nH]1.Cc1ccn[nH]1.[Cl-].[Cl-].[Cl][Ga-]([Cl])([Cl])[Cl].[Ga+3]` [[(3-mpyr)4 GaCl2]GaCl4, trans-Dichlorotetrakis-(5-methylpyrazole)gallium (III) tetrachlorogallate (III)], for which, in [1] (CEM-6), a half-maximal response (EC50) required 108 µM and the “TI = IC50 /EC50” value was determined as 1.52. For the same molecule, it took 164 µM to reach half-maximal inhibition in the data set on T4 lymphocytes [2] (CEM-6) (IC50).
As for `[Cl-].[Cl-].[Cl-].[Ga+3]` [GaCl3, gallium (III) chloride], the renal toxicity entry in [3] is “no renal toxicity”.
Regarding `Cc1cn([C@H]2C[C@H](N=[N+]=[N-])[C@@H](CO)O2)c(=O)[nH]c1=O` [AZT, 3'-Azido-3'-deoxythymidine], the “TI = IC50 /EC50” value in [4] (setting [8]) was 1027; in data set [4] (setting [9]) it was 3680. In addition, the EC50 in data set [4] (setting [8]) was 0.186 µM; in data set [4] (setting [9]), 0.187 µM. Further, the concentration for half-maximal inhibition (IC50) in the data set with T4 lymphocytes [5] (setting [8]) was 191 µM; with T4 lymphocytes [5] (setting [9]), 689 µM.
`O=[N+]([O-])[O-].O=[N+]([O-])[O-].O=[N+]([O-])[O-].[Ga+3]` [gallium nitrate]: the antitumor activity entry is listed as “had shown antitumor activity” in data set [6] and “exhibits antitumor activity” with refractory lymphomas. In addition, the “inhibition of reverse transcriptase” value in data set [7] is “inhibits the reverse transcriptase”.
Take “Dichloro-(2-α-oxybenzylbenzimidzoiato-N,O)gallium(III) [(HBB)GaCl2]”: the “T/C (survival time of treated versus control animals)” value with P-388 leukaemia came to 130%. Further, in data set [1] (CEM-IW), the concentration giving a half-maximal response (EC50) was 43 µM and the “TI = IC50 /EC50” value is 5.14. The same molecule came in with an IC50 with T4 lymphocytes [2] (CEM-IW) of 221 µM.
Consider “trans-Dichlorotetrakis-(benzimidazole)gallium(III) chloride [[(bim)4 GaCl2]Cl]”, for which, in data set [1] (CEM-6), the EC50 amounted to 5.01 µM and the “TI = IC50 /EC50” value is listed as 76.9. Also, the IC50 with T4 lymphocytes [2] (CEM-6) was 385 µM.
Take `O=S(=O)([O-])c1ccc([O-])c2ncccc12.O=S(=O)([O-])c1ccc([O-])c2ncccc12.O=S(=O)([O-])c1ccc([O-])c2ncccc12.[Ga+3].[K+].[K+].[K+]` [Tris-(5-sulfono-8-hydroxyquinoline)gallium(III)-potassium salt]: in the data set on sarcoma 180, the “T/C (survival time of treated versus control animals)” value is on record as 153%.
Regarding `Cc1cn[nH]c1.Cc1cn[nH]c1.Cc1cn[nH]c1.Cc1cn[nH]c1.[Cl-].[Cl-].[Cl][Ga-]([Cl])([Cl])[Cl].[Ga+3]` [[(4-mpyr)4 GaCl2]GaCl4, trans-Dichlorotetrakis-(4-methylpyrazole)gallium(II) tetrachlorogallate(III)], the EC50 amounted to 231 µM in data set [1] (CEM-6) and 50.2 µM in data set [1] (CEM-IW). Moreover, the figures for the “TI = IC50 /EC50” value in data set [1] (CEM-6) and in data set [1] (CEM-IW) were 1.11 and 3.92, respectively. In addition, the 50% inhibitory concentration (IC50) in the data set with T4 lymphocytes [2] (CEM-6) stood at 256 µM; in the data set with T4 lymphocytes [2] (CEM-IW), 197 µM.
